One compound from US10233177B2, “TRPV1 vanilloid receptor antagonists with a bicyclic portion” (Serentrix LLC, priority 2010, dated 2019) can be followed below.

Data set [1] concerns the target TRPV1 (Rattus norvegicus (Rat), UniProt O35433). The data set can be described thus: Ca2+ fluorescence measurements in cultured rat dorsal root ganglia neurons (capsaicin-induced calcium uptake). The data set is classed as cell-based. The conditions noted are these: rat DRG neurons; for inhibition at 0.3 µM: DRG neuron.
Data set [2] concerns CFA-induced thermal hyperalgesia. The data set can be described thus: CFA-induced thermal hyperalgesia in rats (Hargreaves' test). The conditions noted are these: rat, 30 μmol/kg oral; read-out: reversal of CFA-induced thermal hyperalgesia (maximal reversal activity / % of reversion). The data set is classed as in vivo. An excerpt: CFA-Induced Thermal Hyperalgesia in Rats
This method was used for the determination of acute nociceptive thermal threshold and combines a chemical stimulus and heat for measuring pain sensitivity. Male SD rats (Charles River, Italy) weighing 100 to 250 gr. were used. Anti-hyperalgesic effects were investigated by using the Hargreaves' test. Complete Freund's Adjuvant (CFA; Sigma, USA) was used to induce thermal hyperalgesia. CFA contains killed Mycobacterium tuberculosis and is designed to provide continuous release of antigens necessary for stimulating a strong, persistent immune response. This effect causes the reduction of the hind paw withdrawal response latency induced by heat during the Hargreaves' test. Thermal stimulation was performed 30, 60, 120 and 180 (240 min only if needed) minutes after the oral administration of the antagonists. During the CFA-induced thermal hyperalgesia experiments two different solubilization protocols were used: when items presented an amino group, a pH=2 aqueous solution of HCl and 2.5% Tween80 was used; otherwise molecules were suspended in 0.5% Methocel and 2.5% Tween80. Compounds were orally administrated (30 μmol/kg/10 ml) to rats 24 hours after the CFA treatment. CFA was injected into the plantar surface of a rat's hind paw at a fixed dose of 50 μl by the use of a micro syringe.

Data set [3] is described as follows: Rectal temperature measurements in rats. The class given is in vivo. The conditions noted are these: rat, 10 μmol/Kg intraperitoneal. Here is the method: Rectal Temperature Measurements in Rats
Body temperature was measured by a digital thermometer inserted at a depth of approximately 3 cm into the rectum of each animal (male SD rats, Charles River, Italy, 100 to 250 g). A pre-dose value of body temperature was measured prior to the administration of the test substance or vehicles. Animals were distributed among groups by the manual method to achieve the almost same mean values of body temperature of the groups based on the pre-dose value. All compounds were dissolved in 6% DMSO/6% Tween80 and then intraperitoneally (10 μmol/Kg/5 ml) administrated to rats.

In data set [4] the test system is CCI-induced mechanical hyperalgesia. The data set can be described thus: CCI-induced mechanical hyperalgesia (Randall-Selitto paw pressure). The class given is in vivo. The conditions noted are these: rat CCI, 30 μmol/kg oral. The protocol: CCI-Induced Mechanical Hyperalgesia
Male SD rats (Charles River, Italy) weighing 250 g were anaesthetized with sodium pentobarbital (60 mg/kg, intraperitoneal (i.p.), 0.1 ml/10 g) and, under a dissecting microscope, the right common sciatic nerve was exposed at the level of the mid thigh and, proximal to the trifurcation of the nerve; four ligatures (4/0 chromic silk, Ethicon) were loosely tied around it, at about 0.5 mm spacing, until they elicited a brief twitch in the respective hind, taking care to preserve epineural circulation. Sham-operated animals (sciatic exposure without ligation) were used as controls. 14 days after the surgery, mechanical hyperalgesia was assessed using an analgesimeter (Ugo Basile, Italy, Randall-Selitto analgesic apparatus). This device generated a mechanical force on the affected paw and the nociceptive threshold was defined as the force (in g) at which the rat withdraws the paw (with a cut-off of 450 g). Two baseline measurement values were obtained 75 and 45 min before the actual test. After the second baseline measurement, animals were randomly allocated to the different treatment groups. Paw pressure test was performed 0, 75, 120, 165, 210 and 300 min after the oral administration of the compounds. All tested compounds were orally administrated (30 μmol/kg/10 ml) to rats by gavage.

pIC50: −log10 of the molar value. Where two headings read alike, the source gives them in different places.

Sequence of TRPV1 (O35433 whole entry): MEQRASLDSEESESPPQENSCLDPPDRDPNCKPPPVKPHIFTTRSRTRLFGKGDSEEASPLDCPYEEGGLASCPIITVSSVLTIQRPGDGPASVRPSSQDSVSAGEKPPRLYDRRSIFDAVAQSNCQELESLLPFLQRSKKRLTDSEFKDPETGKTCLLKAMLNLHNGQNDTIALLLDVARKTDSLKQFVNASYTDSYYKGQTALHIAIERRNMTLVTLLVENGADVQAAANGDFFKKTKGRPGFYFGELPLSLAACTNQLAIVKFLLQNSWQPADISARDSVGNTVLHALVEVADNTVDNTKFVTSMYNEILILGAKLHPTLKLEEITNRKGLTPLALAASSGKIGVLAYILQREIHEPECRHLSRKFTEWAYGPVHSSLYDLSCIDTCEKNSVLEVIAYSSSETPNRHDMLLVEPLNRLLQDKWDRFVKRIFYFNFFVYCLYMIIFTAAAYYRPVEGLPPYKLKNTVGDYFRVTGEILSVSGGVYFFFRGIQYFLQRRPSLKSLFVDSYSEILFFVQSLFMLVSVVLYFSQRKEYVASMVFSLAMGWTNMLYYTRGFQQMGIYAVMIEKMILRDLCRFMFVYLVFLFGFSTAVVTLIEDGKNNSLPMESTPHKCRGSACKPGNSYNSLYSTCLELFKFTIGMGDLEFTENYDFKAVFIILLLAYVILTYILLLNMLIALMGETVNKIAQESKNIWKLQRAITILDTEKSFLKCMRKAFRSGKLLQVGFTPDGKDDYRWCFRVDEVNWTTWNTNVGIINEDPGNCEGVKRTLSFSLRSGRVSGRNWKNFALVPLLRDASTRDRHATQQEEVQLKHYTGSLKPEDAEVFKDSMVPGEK

`CN(C)c1cc(C(F)(F)F)ccc1CNC(=O)Nc1cccc2c1OCC(=O)N2` [Example 46, 1-(2-(dimethylamino)-4-(trifluoromethyl)benzyl)-3-(3,4-dihydro-3-oxo-2H-benzo[b][1,4]oxazin-8-yl)urea]: the inhibition at 0.3 µM was around 100% in data set [1] (300 nM, read-out: abolition of capsaicin response at 300 nM); 94% in data set [1] (Table 1, formula IA-C, 300 nM against calcium uptake induced by 30 nM capsaicin, read-out: % inhibition at 300 nM); above 80% in data set [1] (capsaicin-induced calcium uptake, read-out: inhibition of the calcium uptake). The pIC50 in data set [1] (Table 1, against capsaicin-evoked [Ca2+]i mobilization, read-out: IC50) was 8.52; in data set [1] (read-out: IC50 against capsaicin-evoked [Ca2+]i mobilization), 8.52. Besides, the inhibition in vivo at 30 µmol/kg in data set [2] came out at 50%. Also, the “effect on rectal body temperature” value in data set [3] is “+0.8 °C”. The “anti-hyperalgesic activity (in words)” value in data set [4] was “relevant and long lasting anti-hyperalgesic activity”. The “reversal of hyperalgesia within the first 2 hours” value in data set [4] is given as “at least 80%”.

The pIC50 is the IC50 on a negative log10 scale, so that one unit is a factor of ten.
